Measured values taken from ChEMBL document CHEMBL4680234, “Antibacterial AZT derivative regulates metastasis of breast cancer cells” (Eur J Med Chem, 2020).
Values after ≈ are worked out from the molar mass of the structure shown. Active and inactive are the calls of the source. The rule behind the calls is not given here.

Key:
[1] = Hemolytic activity in sheep RBC assessed as hemolysis at 4 ug/ml measured after 2 hrs by ELISA relative to control; type: ADME, cell-based, Ovis aries, Erythrocyte; conditions: sheep red blood cells (erythrocytes), at 4 µg/mL, read-out: Activity
Erythrocyte [2] = experiment: Hemolytic activity in sheep RBC measured after 2 hrs by ELISA; type: ADME, cell-based, Ovis aries
[3] = Therapeutic index, ratio of MHC for sheep RBC to geometric mean of peptide MIC for Escherichia coli KCTC 1682; type: toxicity; conditions: sheep red blood cells (erythrocytes), read-out: TI
[4] = Therapeutic index, ratio of MHC for sheep RBC to geometric mean of peptide MIC for Pseudomonas aeruginosa KCTC 1637; type: toxicity; conditions: sheep red blood cells (erythrocytes), read-out: TI
[5] = Therapeutic index, ratio of MHC for sheep RBC to geometric mean of peptide MIC for Bacillus subtilis KCTC 3068; type: toxicity; conditions: sheep red blood cells (erythrocytes), read-out: TI
[6] = Therapeutic index, ratio of MHC for sheep RBC to geometric mean of peptide MIC for Staphylococcus aureus KCTC 1621; type: toxicity; conditions: sheep red blood cells (erythrocytes), read-out: TI
Escherichia coli = experiment: Antibacterial activity against Escherichia coli KCTC 1682 assessed as reduction in bacterial growth incubated for 18 to 22 hrs by spectrophotometry based broth microdilution method; type: functional; conditions: time 18-22 hrs, read-out: MIC100
Pseudomonas aeruginosa [7] = experiment: Antibacterial activity against Pseudomonas aeruginosa KCTC 1637 assessed as reduction in bacterial growth incubated for 18 to 22 hrs by spectrophotometry based broth microdilution method; type: functional; conditions: time 18-22 hrs, read-out: MIC100
Bacillus subtilis [8] = experiment: Antibacterial activity against Bacillus subtilis KCTC 3068 assessed as reduction in bacterial growth incubated for 18 to 22 hrs by spectrophotometry based broth microdilution method; type: functional; conditions: time 18-22 hrs, read-out: MIC100
Staphylococcus aureus [9] = experiment: Antibacterial activity against Staphylococcus aureus KCTC 1621 assessed as reduction in bacterial growth incubated for 18 to 22 hrs by spectrophotometry based broth microdilution method; type: functional; conditions: time 18-22 hrs, read-out: MIC100
MDA-MB-231 [10] = experiment: Inhibition of actin polymerization in human MDA-MB-231 cells assessed as reduction in lamellipodium formation at 20 to 40 uM measured after 6 hrs by Texas Red-conjugated phalloidin staining based fluorescence microscopic analysis; type: cell-based; conditions: dose 20-40 µM
MDA-MB-231 [11] = experiment: Antimigratory activity in human MDA-MB-231 cells assessed as reduction in wound closure at 40 uM measured after 18 to 36 hrs by microscopic analysis; type: functional, cell-based; conditions: time 18-36 hrs
Pseudomonas aeruginosa [12] = experiment: Potency index, ratio of melittin MIC to test compound MIC for antibacterial activity against Pseudomonas aeruginosa KCTC 1637; type: functional
Bacillus subtilis [13] = experiment: Potency index, ratio of melittin MIC to test compound MIC for antibacterial activity against Bacillus subtilis KCTC 3068; type: functional
Staphylococcus aureus [14] = experiment: Potency index, ratio of melittin MIC to test compound MIC for antibacterial activity against Staphylococcus aureus KCTC 1621; type: functional
Erythrocyte [15] = experiment: Hemolytic activity in sheep RBC at 16 ug/ml measured after 2 hrs by ELISA; type: cell-based, Ovis aries; conditions: dose 16 µg/ml
Staphylococcus aureus [16] = experiment: Antimicrobial activity against methicillin-resistant Staphylococcus aureus CCARM 3089 assessed as reduction in microbial growth incubated for 18 to 24 hrs by broth microdilution method; type: functional; conditions: time 18-24 hrs
Staphylococcus aureus [17] = experiment: Antimicrobial activity against methicillin-resistant Staphylococcus aureus CCARM 3090 assessed as reduction in microbial growth incubated for 18 to 24 hrs by broth microdilution method; type: functional; conditions: time 18-24 hrs
Staphylococcus aureus [18] = experiment: Antimicrobial activity against methicillin-resistant Staphylococcus aureus CCARM 3095 assessed as reduction in microbial growth incubated for 18 to 24 hrs by broth microdilution method; type: functional; conditions: time 18-24 hrs
Staphylococcus aureus [19] = experiment: Potency index, ratio of melittin MIC to test compound MIC for antimicrobial activity against methicillin-resistant Staphylococcus aureus CCARM 3089; type: functional
Staphylococcus aureus [20] = experiment: Potency index, ratio of melittin MIC to test compound MIC for antimicrobial activity against methicillin-resistant Staphylococcus aureus CCARM 3090; type: functional
Staphylococcus aureus [21] = experiment: Potency index, ratio of melittin MIC to test compound MIC for antimicrobial activity against methicillin-resistant Staphylococcus aureus CCARM 3095; type: functional
MDA-MB-231 [22] = experiment: Cytotoxicity against human MDA-MB-231 cells assessed as reduction in cell viability at 50 uM measured after 48 hrs by EZCytox cell viability assay; type: cell-based; conditions: mda-mb-231, 48 h
MDA-MB-231 [23] = experiment: Antiinvasive activity in human MDA-MB-231 cells at 40 uM measured after 16 hrs using crystal violet staining microscopy based Boyden chamber assay; type: functional, cell-based
MDA-MB-231 [24] = experiment: Inhibition of cell motility in human MDA-MB-231 cells assessed as reduction in cell migration distance at 40 uM measured at 30 mins interval for 24 hrs by time-lapse […] analysis; type: functional, cell-based
Pseudomonas aeruginosa [25] = experiment: Potency index, ratio of melittin MIC to test compound MIC for antimicrobial activity against multidrug-resistant Pseudomonas aeruginosa CCARM 2095 assessed as reduction in microbial growth
Pseudomonas aeruginosa [26] = experiment: Potency index, ratio of melittin MIC to test compound MIC for antimicrobial activity against multidrug-resistant Pseudomonas aeruginosa CCARM 2109 assessed as reduction in microbial growth

## CC[C@H](C)[C@H](NC(=O)CN)C(=O)NCC(=O)N[C@@H](C)C(=O)N[C@H](C(=O)N[C@@H](CC(C)C)C(=O)N[C@@H](CCCCN)C(=O)N[C@H](C(=O)N[C@@H](CC(C)C)C(=O)N[C@H](C(=O)N[C@H](C(=O)NCC(=O)N[C@@H](CC(C)C)C(=O)N1CCC[C@H]1C(=O)N[C@@H](C)C(=O)N[C@@H](CC(C)C)C(=O)N[C@H](C(=O)N[C@@H](CO)C(=O)N[C@@H](Cc1c[nH]c2ccccc12)C(=O)N[C@H](C(=O)N[C@@H](CCCCN)C(=O)N[C@@H](CCCNC(=N)N)C(=O)N[C@@H](CCCCN)C(=O)N[C@@H](CCCNC(=N)N)C(=O)N[C@@H](CCC(N)=O)C(=O)N[C@@H](CCC(N)=O)C(N)=O)[C@@H](C)CC)[C@@H](C)CC)[C@@H](C)O)[C@@H](C)O)C(C)C)C(C)C [MELITTIN]
[1]
  hemolysis at 2 h, 4 ug/ml: 12%
Erythrocyte [2]
  MHC: 4 µg/mL
[3]
  selectivity ratio: 0.3
[4]
  selectivity ratio: 0.3
[5]
  selectivity ratio: 0.3
[6]
  selectivity ratio: 0.3

## Cc1cn([C@H]2C[C@H](NC(=O)C3CCCCC3)[C@@H](CNC(=O)C3CCCCC3)O2)c(=O)nc1N(CCCN)CCCN
Escherichia coli
  MIC: > 64 µg/mL
Pseudomonas aeruginosa [7]
  MIC: 64 µg/mL (≈ 112 µM)
Bacillus subtilis [8]
  MIC: 64 µg/mL (≈ 112 µM)
Staphylococcus aureus [9]
  MIC: > 64 µg/mL

## Cc1cn([C@H]2C[C@H](NC(=O)C3CCCCC3)[C@@H](CNC(=O)C3CCCCC3)O2)c(=O)nc1NCCNC(=N)N
Escherichia coli
  MIC: > 64 µg/mL
Pseudomonas aeruginosa [7]
  MIC: > 64 µg/mL
Bacillus subtilis [8]
  MIC: > 64 µg/mL
Staphylococcus aureus [9]
  MIC: > 64 µg/mL

## Cc1cn([C@H]2C[C@H](NC(=O)C3CCCCC3)[C@@H](CNC(=O)C3CCCCC3)O2)c(=O)nc1N(CCCNC(=N)N)CCCNC(=N)N
Escherichia coli
  MIC: > 64 µg/mL
Pseudomonas aeruginosa [7]
  MIC: 16 µg/mL (≈ 24.3 µM)
Bacillus subtilis [8]
  MIC: 32 µg/mL (≈ 48.6 µM)
Staphylococcus aureus [9]
  MIC: 32 µg/mL (≈ 48.6 µM)

## CCCCCC(=O)NC[C@H]1O[C@@H](n2cc(C)c(NCCNC(=N)N)nc2=O)C[C@@H]1NC(=O)CCCCC
Escherichia coli
  MIC: > 64 µg/mL
Pseudomonas aeruginosa [7]
  MIC: 64 µg/mL (≈ 123 µM)
Bacillus subtilis [8]
  MIC: > 64 µg/mL
Staphylococcus aureus [9]
  MIC: > 64 µg/mL

## Cc1cn([C@H]2C[C@H](NC(=O)CCCc3ccccc3)[C@@H](CNC(=O)CCCc3ccccc3)O2)c(=O)nc1N(CCCN)CCCN
Escherichia coli
  MIC: > 64 µg/mL
Pseudomonas aeruginosa [7]
  MIC: 4 µg/mL (≈ 6.19 µM)
Bacillus subtilis [8]
  MIC: 16 µg/mL (≈ 24.8 µM)
Staphylococcus aureus [9]
  MIC: 32 µg/mL (≈ 49.5 µM)

## Cc1cn([C@H]2C[C@H](NC(=O)CC34CC5CC(CC(C5)C3)C4)[C@@H](CNC(=O)CC34CC5CC(CC(C5)C3)C4)O2)c(=O)nc1N(CCCNC(=N)N)CCCNC(=N)N
MDA-MB-231 [10]
  inhibition: Active
MDA-MB-231 [11]
  Activity: Active
Escherichia coli
  MIC: 16 µg/mL (≈ 20.3 µM)
Pseudomonas aeruginosa [7]
  MIC: 4 µg/mL (≈ 5.06 µM)
Bacillus subtilis [8]
  MIC: 2 µg/mL (≈ 2.53 µM)
Staphylococcus aureus [9]
  MIC: 2 µg/mL (≈ 2.53 µM)
Pseudomonas aeruginosa [12]
  Ratio: 4
Bacillus subtilis [13]
  Ratio: 4
Staphylococcus aureus [14]
  Ratio: 4
Erythrocyte [15]
  Activity: Non-Toxic
Erythrocyte [2]
  MHC: 25 µg/mL
[3]
  selectivity ratio: 4.2
[4]
  selectivity ratio: 4.2
[5]
  selectivity ratio: 4.2
[6]
  selectivity ratio: 4.2
Staphylococcus aureus [16]
  MIC: 8 µg/mL
Staphylococcus aureus [17]
  MIC: 8 µg/mL
Staphylococcus aureus [18]
  MIC: 8 µg/mL
Staphylococcus aureus [19]
  Ratio: 2
Staphylococcus aureus [20]
  Ratio: 2
Staphylococcus aureus [21]
  Ratio: 2
MDA-MB-231 [22]
  Activity: Non-Toxic
MDA-MB-231 [23]
  Activity: Active
MDA-MB-231 [24]
  Activity: Active
Pseudomonas aeruginosa [25]
  Ratio: 2
Pseudomonas aeruginosa [26]
  Ratio: 2

## Cc1cn([C@H]2C[C@H](NC(=O)CCCc3ccccc3)[C@@H](CNC(=O)CCCc3ccccc3)O2)c(=O)nc1N(CCCNC(=N)N)CCCNC(=N)N
Escherichia coli
  MIC: > 64 µg/mL
Pseudomonas aeruginosa [7]
  MIC: 16 µg/mL (≈ 21.9 µM)
Bacillus subtilis [8]
  MIC: 8 µg/mL (≈ 11 µM)
Staphylococcus aureus [9]
  MIC: 8 µg/mL (≈ 11 µM)

## CCCCCC(=O)NC[C@H]1O[C@@H](n2cc(C)c(N(CCCN)CCCN)nc2=O)C[C@@H]1NC(=O)CCCCC
Escherichia coli
  MIC: > 64 µg/mL
Pseudomonas aeruginosa [7]
  MIC: 8 µg/mL (≈ 14.6 µM)
Bacillus subtilis [8]
  MIC: 64 µg/mL (≈ 116 µM)
Staphylococcus aureus [9]
  MIC: > 64 µg/mL

## Cc1cn([C@H]2C[C@H](NC(=O)Cc3cccc4ccccc34)[C@@H](CNC(=O)Cc3cccc4ccccc34)O2)c(=O)nc1NCCNC(=N)N
Escherichia coli
  MIC: > 64 µg/mL
Pseudomonas aeruginosa [7]
  MIC: > 64 µg/mL
Bacillus subtilis [8]
  MIC: 16 µg/mL (≈ 24.2 µM)
Staphylococcus aureus [9]
  MIC: 32 µg/mL (≈ 48.4 µM)
